Series [1] has as its target T1, PLTP (Homo sapiens, UniProt P55058).
T1 construct: from tissue
As to the kind of experiment: Determination of PLTP inhibition activity (radiolabelled phospholipid liposome to HDL transfer with plasma). Type of series: biochemical. The note with it: for inhibition at 250 µM: Concentration of compounds 250 μM; for inhibition at 500 µM: Concentration of compounds 500 μM. As to the method: 30 μl (about 1000 cpm/μl) phospholipids liposome, 30 μl HDL ([…]), 337 μl TSE and 3 μl plasma were mixed, incubated in 37° C. water-bath for 1 hour, and then added 300 μl of a settling solution (50 ml solution preparation: 5.36 ml 5N NaCl, 9.075 ml 2M MnCl2 and 46 mg liver phospholipid were mixed, added water to 50 ml), the solution was stood at room temperature for 10 minutes, rotated at high speed for 10 minutes (to remove phospholipids liposome), 500 μl of the supernatant was sampled and counted. PLTP activity (cpm/h/3 μl)=sample cpm-background cpm.

In series [2] the target is T2, CETP (Homo sapiens, UniProt P11597).
T2 sequence (P11597 18-493): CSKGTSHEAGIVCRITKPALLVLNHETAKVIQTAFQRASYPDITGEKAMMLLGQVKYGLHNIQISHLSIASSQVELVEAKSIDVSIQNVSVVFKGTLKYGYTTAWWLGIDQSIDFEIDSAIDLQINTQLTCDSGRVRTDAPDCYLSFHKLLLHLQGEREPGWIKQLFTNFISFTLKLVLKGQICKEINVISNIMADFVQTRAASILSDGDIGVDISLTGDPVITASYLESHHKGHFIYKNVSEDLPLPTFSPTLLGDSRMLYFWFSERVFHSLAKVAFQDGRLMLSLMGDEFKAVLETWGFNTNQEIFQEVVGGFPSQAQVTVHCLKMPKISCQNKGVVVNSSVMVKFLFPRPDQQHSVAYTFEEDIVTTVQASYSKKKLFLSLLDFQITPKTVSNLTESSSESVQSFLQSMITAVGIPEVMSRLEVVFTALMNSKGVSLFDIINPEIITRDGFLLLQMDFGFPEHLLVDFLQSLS
In words: Determination of CETP inhibition activity (fluorescent donor/acceptor transfer). Type of series: biochemical. Particulars: for inhibition at 500 µM: Concentration of compounds 500 μM, read-out: CETP inhibition activity Inhibition rate(%). As for the experimental part:
A mixture containing 3 μl of a donor, 9 μl of an acceptor (250 μg protein), 3 μl of CETP solution and 85 μl of an analytic buffer, 10 mM Tris, 0.15 M NaCl and 2 mM EDTA, pH 7.4 was incubated at 37° C. for 0.5 hours, the fluorescence intensity was determined on Victor 3 double illuminometer/fluorescence counter (Perkin Elmer) carrying […] light wave length.

Series [3] concerns the target T1, PLTP. Particulars: reported in WO 2002068450; read-out: Ki value to inhibit PLTP; cited from earlier work.
Series [4] has as its target T2, CETP. Particulars: reported in WO 2002068450; read-out: Ki value to inhibit CETP; cited from earlier work.
The mark [5] stands for this setting: read-out: PLTP inhibition activity Inhibition rate(%).

Each structure is given as a SMILES string.

What is called IC50 is the concentration needed to halve the response being measured. Read a low IC50 as higher potency. As usually defined, the inhibition is the percentage by which the read-out fell short of the control. In general, melting point refers to the temperature, or range, at which the solid turns liquid. One may read the Ki as a dissociation constant, usually derived from enzyme kinetics or from competition with a known ligand.

T1 sequence (P55058 18-493, species assumed): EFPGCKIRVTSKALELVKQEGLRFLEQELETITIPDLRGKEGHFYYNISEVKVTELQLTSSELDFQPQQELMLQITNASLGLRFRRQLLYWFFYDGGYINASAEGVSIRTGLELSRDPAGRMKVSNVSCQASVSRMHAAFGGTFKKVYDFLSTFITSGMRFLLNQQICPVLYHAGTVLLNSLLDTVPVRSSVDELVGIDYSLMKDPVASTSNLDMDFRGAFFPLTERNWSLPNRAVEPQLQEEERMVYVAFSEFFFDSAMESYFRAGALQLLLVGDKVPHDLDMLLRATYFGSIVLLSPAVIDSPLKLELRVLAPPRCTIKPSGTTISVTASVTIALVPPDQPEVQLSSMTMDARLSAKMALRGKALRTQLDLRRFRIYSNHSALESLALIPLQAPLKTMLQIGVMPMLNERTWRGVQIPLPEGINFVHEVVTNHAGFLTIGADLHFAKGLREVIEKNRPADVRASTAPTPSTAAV

In the case of `O=C(Nc1nc(-c2ccc(O)cc2)c(CCc2ccccc2)s1)c1ccc(O)c(O)c1` [Example 60, 3,4-dihydroxy-N-[4-(4-hydroxy-phenyl)-5-phenylethyl-thiazol-2-yl]-benzamide], the melting point was 208 to 209 °C. Inhibition against PLTP [1] was half-maximal at 35 µM (IC50). Moreover, at PLTP [1] (setting [5]), the inhibition at 250 µM was 97%. The inhibition at 500 µM on CETP [2] amounted to 0%.
For the molecule `CCCCc1sc(N)nc1-c1ccc(OC)cc1` [Example 62, 4-(4-methoxy-phenyl)-5-n-butyl-thiazol-2-ylamine], the melting point lay within 118 to 119 °C. Also, on PLTP [1] (setting [5]), the inhibition at 250 µM was 15.3%. For the same molecule, the inhibition at 500 µM at CETP [2] was 65.4%.
For the molecule `CCCCc1sc(NC(=O)c2ccc(O)c(O)c2)nc1-c1ccc(O)cc1` [Example 65, N-[5-n-butyl-4-(4-hydroxy-phenyl)-thiazol-2-yl]-3,4-dihydroxy-benzamide], the melting point lay within 189 to 190 °C. Also, the IC50 on PLTP [1] was 75 µM. Moreover, on PLTP [1] (setting [5]), the inhibition at 250 µM is 93.4%. The inhibition at 500 µM at CETP [2] was determined as 0%.
On the same counts, the results for `CCCCc1sc(NC(=O)c2cc(O)c(O)c(O)c2)nc1-c1ccc(O)cc1` [Example 66, N-[5-n-butyl-4-(4-hydroxy-phenyl)-thiazol-2-yl]-3,4,5-trihydroxy-benzamide] are 119 to 120 °C, 75 µM, 100% and 27.3%.
As to `O=C(CCc1ccc(O)c(O)c1)Nc1nc(-c2ccc(O)cc2)c(Cc2ccccc2)s1` [Example 69, N-[5-benzyl-4-(4-hydroxy-phenyl)-thiazol-2-yl]-3-(3,4-dihydroxy-phenyl)-propanamide], the melting point fell in the range of 94 to 95 °C. The same molecule returned an IC50 against PLTP [1] of 75 µM. Moreover, the inhibition at 150 µM at PLTP [1] (Concentration of compounds 150 μM, read-out: PLTP inhibition activity Inhibition rate(%)) is 75.7%. Moreover, on CETP [2], the inhibition at 500 µM is 25.3%.
`COc1ccc(-c2nc(N3CCOCC3)sc2Cc2ccccc2)cc1` [Example 70, 4-[5-benzyl-4-(4-methoxy-phenyl)-thiazol-2-yl]-morpholine]: the melting point lay in the range of 88 to 89 °C. Also, the inhibition at 500 µM on PLTP [1] (setting [5]) worked out at 61%. Also, on CETP [2], the IC50 was 75 µM and the inhibition at 500 µM worked out at 91.6%.
`COc1ccc(-c2nc(N3CCNCC3)sc2Cc2ccccc2)cc1.Cl.Cl.Cl` [Example 72, 1-[5-benzyl-4-(4-methoxy-phenyl)-thiazol-2-yl]-piperazine trihydrochloride] returned a melting point of 111 to 112 °C. Besides, the inhibition at 500 µM on PLTP [1] (setting [5]) stood at 100%. Also, the inhibition at 500 µM on CETP [2] is 74.5%.
As to `CC(C)(C)C(=O)Nc1ccccc1SSc1ccccc1NC(=O)C(C)(C)C` [N-{2-[2-(2,2-dimethyl-propanamido)-phenyldithio]-phenyl}-2,2-dimethyl-propanamide], the values for the Ki at PLTP [3] and at CETP [4] were 15 µM and 13 µM, respectively.

The values are drawn from patent publication US8053581B2, “Trisubstituted thiazole compounds, preparations methods, pharmaceutical compositions and medicals uses thereof” (Institute of Pharmacology and Toxicology Academy of …, priority 2006, dated 2011).
